Results on 1 molecule are retold here after publication PMC6345968, “Structural basis for species-selective targeting of Hsp90 in a pathogenic fungus” (Nature Communications, 2019).

Values joined by “and” are separate entries in the source; they are usually repeats but may differ in a detail not shown here. Equal values may be shown once.

The target in one data set is human Hsp90 NBD (Homo sapiens, UniProt P08238). Kind of data set: biochemical.
For the next data set, the system named is Raw264.7 macrophages. As to the kind of experiment: Phagocytosis of GFP C. albicans by macrophages, flow cytometry. The class given is cell-based, mouse. The note with it: 2 h pre-treatment. The procedure: Compromise of host immune function and other target-related toxicities preclude the use of non-species-selective Hsp90 inhibitors in the treatment of fungal infections. Host defense against invasive infection relies heavily on the ingestion and destruction of C. albicans by innate immune cells, such as macrophages. […] After an additional two hours, phagocytosis of the fluorescently labeled fungi was measured by flow cytometry. […] This Hsp90-dependent morphogenetic program has an important role in the organism’s virulence and interactions with host immune effectors such as macrophages.
The ingestion of GFP-marked C. albicans CaCi-2 (CaLC867, Table S4) by mouse macrophages was monitored using flow cytometry. Raw264.7 macrophage cultures were pre-treated with various concentrations of Hsp90 inhibitors for 2 h at 37 °C and then infected with fungus at a multiplicity of infection of ~2 for an additional 2 h. Wells were harvested by trypsinization and resultant cell suspensions incubated with Guava ViaCount reagent per manufacturer’s recommendation (Millipore Sigma, Cat #4000-0040). Red fluorescent signal was used to identify macrophages while green fluorescent signal identified the fungus. Dual positive (red and green) events with appropriate forward- and side-scatter parameters were quantitated as representative of ingestion of fungus by a macrophage. […]
For orientation: Flow cytometry measures light scatter and fluorescence of single cells or particles in a stream.

Chain of human Hsp90 NBD (P08238 1-223): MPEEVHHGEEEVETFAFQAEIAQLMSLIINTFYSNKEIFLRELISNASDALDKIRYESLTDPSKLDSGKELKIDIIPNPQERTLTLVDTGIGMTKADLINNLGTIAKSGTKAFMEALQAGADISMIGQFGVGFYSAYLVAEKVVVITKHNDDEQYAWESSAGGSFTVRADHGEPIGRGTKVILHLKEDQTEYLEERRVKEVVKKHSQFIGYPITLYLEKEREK

Turning to `COc1ccc(CON=C2C=CC=CC3OC3CC(C)OC(=O)c3c(O)cc(O)cc3C2)cc1` (stereo not drawn) [CMLD013075], the heat-shock reporter activation result with 293T reporter cells is listed as “activation required much higher concentrations”. Besides, the IC50 – broadly, the midpoint of a concentration-inhibition curve – on human Hsp90 NBD (I50, single experiments Expt 1-3) is 1650 nM and 1630 nM and 1250 nM; at human Hsp90 NBD (IC50 (Equation 16), corrected I50, single experiments, unit inferred) it was 1650 nM and 1620 nM and 1240 nM. The Ki – broadly, a measure of affinity in units of concentration, obtained from inhibition or displacement – on human Hsp90 NBD (Inhibitor Ki, single experiments Expt 1-3) was 237 nM and 236 nM and 181 nM; at human Hsp90 NBD (Ki, purified NBD, Cy3-GdA probe, mean (± SEM) of 3 experiments), 218 nM. The “effect on engulfment of C. albicans” value with Raw264.7 macrophages is on record as “Neither compound impaired engulfment”.
